Laboratory results taken from US20200187499A1, “SUBSTITUTED BENZYL-4-AMINOPICOLINIC ESTERS AND PYRIMIDINO-4-CARBOXYLIC ESTERS, METHODS FOR THE PRODUCTION THEREOF, AND USE THEREOF AS HERBICIDES AND PLANT GROWTH REGULATORS” (Bayer CropScience Aktiengesellschaft, priority 2017, published 2020).

Key:
Assay type in all cases: in vivo
STEME = experiment: Post-emergence herbicidal action; settings: Table 6, post-emergence (PO), 320 g/ha, assessed after about 3 weeks
Protocol: (§1) Seeds of monocotyledonous and dicotyledonous weed and crop plants are laid out in sandy loam soil in wood-fiber pots, covered with soil and cultivated in a greenhouse under good growth conditions. 2 to 3 weeks after sowing, the test plants are treated at the one-leaf stage. The compounds of the invention, formulated in the form of wettable powders (WP) or as emulsion concentrates (EC), are then sprayed onto the green parts of the plants in the form of an aqueous suspension or emulsion at a water application rate equating to 600 to 800 l/ha, with addition of 0.2% wetting agent. After the test plants have been left to stand in the greenhouse under optimal growth conditions for about 3 weeks, the action of the preparations is assessed visually in comparison to untreated controls (herbicidal action in percent (%): 100% activity=the plants have died, 0% activity=like control plants). […] At the same time, inventive compounds leave Gramineae crops such as barley, wheat, rye, millet/sorghum, corn or rice virtually undamaged when applied post-emergence, even at high active ingredient dosages. In addition, some substances are also harmless to dicotyledonous crops such as soya, cotton, oilseed rape, sugar beet or potatoes. Some of the compounds according to the invention have high selectivity and are therefore suitable for controlling unwanted vegetation in agricultural crops by the post-emergence method. The tables below illustrate, in an exemplary manner, the post-emergence herbicidal action of the compounds according to the invention, the herbicidal activity being stated in percent.

ABUTH = experiment: Post-emergence herbicidal action; settings: 320 g/ha, assessed after about 3 weeks
Protocol: as §1

SETVI = experiment: Post-emergence herbicidal action; settings: 320 g/ha, assessed after about 3 weeks
Protocol: as §1

AMARE [1] = experiment: Post-emergence herbicidal action; settings: 320 g/ha, assessed after about 3 weeks
Protocol: as §1

ECHCG [2] = experiment: Pre-emergence herbicidal action; settings: Table 4, pre-emergence (PE), 320 g/ha, scored after 3 weeks
From the text: (§2) Seeds of monocotyledonous and dicotyledonous weed plants and crop plants are laid out in sandy loam soil in wood-fiber pots and covered with soil. The compounds of the invention, formulated in the form of wettable powders (WP) or as emulsion concentrates (EC), are then applied to the surface of the covering soil in the form of an aqueous suspension or emulsion at a water application rate equating to 600 to 800 I/ha, with addition of 0.2% wetting agent. After the treatment, the pots are placed in a greenhouse and kept under good growth conditions for the trial plants. The damage to the test plants is scored visually after a test period of 3 weeks by comparison with untreated controls (herbicidal activity in percent (%): 100% activity=the plants have died, 0% activity=like control plants).
(§3) At the same time, inventive compounds leave Gramineae crops such as barley, wheat, rye, millet/sorghum, corn or rice virtually undamaged when applied pre-emergence, even at high active ingredient dosages. In addition, some substances are also harmless to dicotyledonous crops such as soya, cotton, oilseed rape, sugar beet or potatoes. […] The tables below illustrate, in an exemplary manner, the pre-emergence herbicidal action of the compounds according to the invention, the herbicidal activity being stated in percent.

AMARE [3] = experiment: Pre-emergence herbicidal action; settings: Table 4, pre-emergence (PE), 320 g/ha, scored after 3 weeks
From the text: as §2, §3

ECHCG [4] = experiment: Post-emergence herbicidal action; settings: 320 g/ha, assessed after about 3 weeks
Protocol: as §1

SMILES	Herbicidal action against STEME (STEME) [%]	Herbicidal action against ABUTH (ABUTH; Table 6, post-emergence (PO)) [%]	Herbicidal action against SETVI (SETVI; Table 6, post-emergence (PO)) [%]	Herbicidal action against AMARE (AMARE [1]; Table 6, post-emergence (PO)) [%]	Herbicidal action against ECHCG (ECHCG [2]) [%]	Herbicidal action against AMARE (AMARE [3]) [%]	Herbicidal action against ABUTH (ABUTH; Table 9, post-emergence (PO)) [%]	Herbicidal action against AMARE (AMARE [1]; Table 9, post-emergence (PO)) [%]	other results
Nc1c(F)c(-c2ccc3occc3c2)nc(C(=O)OCc2ccc(F)cc2F)c1Cl [Example I-48]	80	90	30	90	10	90			
Nc1cc(-c2ccc3ccoc3c2F)nc(C(=O)OCc2ccc(Cl)cc2)c1Cl [Example I-49]	90	90	80	100					
Nc1c(F)c(-c2ccc3ccoc3c2)nc(C(=O)OCc2ccc(Cl)cc2Cl)c1Cl [Example I-51]					20	70	80	90	
Nc1c(F)c(-c2ccc3sccc3c2)nc(C(=O)OCc2ccc(F)cc2F)c1Cl [Example I-56]	90	80	80	90	30	80			
COc1c(Cl)ccc(Cl)c1COC(=O)c1nc(-c2ccc3occc3c2)cc(N)c1Cl [Example I-57]	70	90	80	100					
Nc1c(F)c(-c2cc3ccsc3cc2F)nc(C(=O)OCc2ccc(Cl)cc2)c1Cl [Example I-58]							90	100	
Nc1c(F)c(-c2ccc3sccc3c2)nc(C(=O)OCc2c(F)cc(F)cc2F)c1Cl [Example I-59]	90	90	80	90	30	80			
Nc1cc(-c2ccc3ncsc3c2)nc(C(=O)OCc2cccc(Cl)c2)c1Cl [Example I-60]									Herbicidal action against ABUTH (ABUTH; Table 7, post-emergence (PO)): 90%; Herbicidal action against ABUTH (ABUTH; Table 8, post-emergence (PO)): 90%; Herbicidal action against ECHCG (ECHCG [4]; Table 7, post-emergence (PO)): 90%; Herbicidal action against ECHCG (ECHCG [4]; Table 8, post-emergence (PO)): 90%; Herbicidal action against SETVI (SETVI; Table 7, post-emergence (PO)): 80%; Herbicidal action against SETVI (SETVI; Table 8, post-emergence (PO)): 80%; Herbicidal action against AMARE (AMARE [1]; Table 7, post-emergence (PO)): 80%; Herbicidal action against AMARE (AMARE [1]; Table 8, post-emergence (PO)): 80%
Nc1cc(-c2ccc3occc3c2)nc(C(=O)OCc2ccccc2[N+](=O)[O-])c1Cl [Example I-62]							100	40	
Nc1c(F)c(-c2ccc3occc3c2)nc(C(=O)OCc2ccc(Cl)cc2Cl)c1Cl [Example I-63]							80	80	
Nc1c(F)c(-c2ccc3ncsc3c2)nc(C(=O)OCc2ccc(Cl)cc2)c1Cl [Example I-64]	40	90	90	90					
Nc1c(F)c(-c2cc3ccoc3cc2F)nc(C(=O)OCc2ccc(Cl)cc2)c1Cl [Example I-68]							80	80	
Nc1c(F)c(-c2cc3ccoc3cc2F)nc(C(=O)OCc2ccc(F)cc2)c1Cl [Example I-71]							40	80	
